Laboratory results published in ChEMBL document CHEMBL1287670, “Discovery and synthesis of 6,7,8,9-tetrahydro-5H-pyrimido-[4,5-d]azepines as novel TRPV1 antagonists” (Bioorg Med Chem Lett, 2010).
In brackets after ≈: the same amount, converted by molar mass. Activity calls are given as the source filed them. No cut-off for these calls is given here.

Columns and labels:
[1] = biological target: T1, Transient receptor potential cation channel subfamily V member 1 (Homo sapiens, UniProt Q8NER1); test: Antagonist activity at human recombinant TRPV1 assessed as inhibition of capsaicin-induced in intracellular calcium levels by cell-based FLIPR assay; format: functional
[2] = Aqueous equilibrium solubility of the compound in fasted-state simulated intestinal fluid at pH 6.8 by HPLC; format: physicochemical
[3] = AUC (infinity) in fasted Sprague-Dawley rat at 5 mg/kg, po; format: ADME, organism-based; parameters: time infinity, dose 5 mg/kg, route oral; conditions: plasma
[4] = Bioavailability in fasted Sprague-Dawley rat at 1 mg/kg, iv or 5 mg/kg, po; format: ADME, organism-based; conditions: in vivo
[5] = Cmax in fasted Sprague-Dawley rat at 1 mg/kg, iv or 5 mg/kg, po; format: ADME, organism-based; conditions: in vivo
[6] = Aqueous equilibrium solubility of the compound at pH 2 by HPLC; format: physicochemical; conditions: aqueous medium
[7] = Volume of distribution at steady state in fasted Sprague-Dawley rat at 1 mg/kg, iv or 5 mg/kg, po; format: ADME, organism-based; conditions: in vivo, read-out: Vdss
[8] = AUC (infinity) in fasted Sprague-Dawley rat at 1 mg/kg, iv; format: ADME, organism-based; parameters: time infinity, dose 1 mg/kg, route intravenous; conditions: plasma
[9] = Clearance in fasted Sprague-Dawley rat at 1 mg/kg, iv or 5 mg/kg, po; format: ADME, organism-based; conditions: in vivo
[10] = Half life in fasted Sprague-Dawley rat at 1 mg/kg, iv or 5 mg/kg, po; format: ADME, organism-based; conditions: in vivo
[11] = tested on: Rattus norvegicus; test: Antihyperalgesic activity against carrageenan-induced thermal hyperalgesia in rat assessed as paw withdrawal latency at 30 mg/kg, po administered 1 hr before carrageenan challenge; format: functional, organism-based; parameters: dose 30 mg/kg
[12] = biological target: T1, Transient receptor potential cation channel subfamily V member 1; test: Binding affinity to human recombinant TRPV1
[13] = biological target: Transient receptor potential cation channel subfamily V member 1 (Rattus norvegicus, UniProt O35433); test: Binding affinity to rat TRPV1
Chain of Transient receptor potential cation channel subfamily V member 1 (Rattus norvegicus, UniProt O35433) (O35433 whole entry): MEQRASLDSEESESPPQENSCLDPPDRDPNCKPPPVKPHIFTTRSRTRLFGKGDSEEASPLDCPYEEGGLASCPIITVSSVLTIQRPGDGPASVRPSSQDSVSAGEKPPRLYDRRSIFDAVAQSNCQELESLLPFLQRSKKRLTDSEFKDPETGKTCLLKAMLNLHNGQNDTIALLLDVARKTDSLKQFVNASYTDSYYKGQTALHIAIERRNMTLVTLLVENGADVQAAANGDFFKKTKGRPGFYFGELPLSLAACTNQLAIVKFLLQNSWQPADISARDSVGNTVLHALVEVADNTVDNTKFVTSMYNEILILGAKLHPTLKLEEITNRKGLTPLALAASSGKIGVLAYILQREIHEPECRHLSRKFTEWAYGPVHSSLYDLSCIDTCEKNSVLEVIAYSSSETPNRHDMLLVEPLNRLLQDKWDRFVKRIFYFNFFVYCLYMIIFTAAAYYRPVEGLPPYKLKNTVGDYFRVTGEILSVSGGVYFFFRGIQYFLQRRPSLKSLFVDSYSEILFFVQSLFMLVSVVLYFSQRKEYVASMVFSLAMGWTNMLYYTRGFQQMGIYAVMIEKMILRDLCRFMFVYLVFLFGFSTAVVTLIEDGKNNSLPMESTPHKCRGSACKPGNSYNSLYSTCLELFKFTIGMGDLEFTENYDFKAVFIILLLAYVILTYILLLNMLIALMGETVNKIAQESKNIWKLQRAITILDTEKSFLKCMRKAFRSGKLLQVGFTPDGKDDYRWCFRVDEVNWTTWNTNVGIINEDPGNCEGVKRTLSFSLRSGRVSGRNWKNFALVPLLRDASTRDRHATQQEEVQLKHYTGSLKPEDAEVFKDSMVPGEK

T1 sequence (Q8NER1 whole entry): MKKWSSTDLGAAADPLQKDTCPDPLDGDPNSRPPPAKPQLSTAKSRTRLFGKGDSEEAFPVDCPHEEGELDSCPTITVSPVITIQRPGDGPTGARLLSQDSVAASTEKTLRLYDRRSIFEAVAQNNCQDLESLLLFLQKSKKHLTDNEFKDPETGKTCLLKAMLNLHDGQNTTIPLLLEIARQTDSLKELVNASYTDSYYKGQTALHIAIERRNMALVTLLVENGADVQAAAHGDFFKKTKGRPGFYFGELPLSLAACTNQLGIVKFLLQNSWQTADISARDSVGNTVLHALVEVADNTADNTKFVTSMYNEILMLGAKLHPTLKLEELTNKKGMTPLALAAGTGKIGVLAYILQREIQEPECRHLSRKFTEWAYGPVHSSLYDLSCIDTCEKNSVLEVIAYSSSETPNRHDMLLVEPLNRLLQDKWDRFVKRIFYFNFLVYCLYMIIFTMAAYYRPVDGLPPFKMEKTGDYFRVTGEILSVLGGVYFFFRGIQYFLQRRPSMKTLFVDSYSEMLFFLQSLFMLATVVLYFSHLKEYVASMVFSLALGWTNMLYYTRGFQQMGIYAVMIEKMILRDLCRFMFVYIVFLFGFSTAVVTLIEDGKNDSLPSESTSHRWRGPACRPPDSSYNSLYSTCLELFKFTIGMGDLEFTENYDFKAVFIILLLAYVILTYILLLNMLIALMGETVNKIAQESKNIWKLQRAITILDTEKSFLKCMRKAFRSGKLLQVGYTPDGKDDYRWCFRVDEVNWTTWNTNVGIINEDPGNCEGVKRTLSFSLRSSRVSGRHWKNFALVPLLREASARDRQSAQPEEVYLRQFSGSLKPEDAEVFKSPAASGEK

With `CC(C)c1nc2c(c(Nc3ccc(C(C)(C)C)cc3)n1)CCN(c1ncccc1C(F)(F)F)C2` the IC50 [1] was 18 nM.
`FC(F)(F)c1cccc(Nc2ncnc3c2CCN(c2ncccc2C(F)(F)F)C3)c1` gave an IC50 [1] of 1450 nM.
With `COC(=O)c1cnc(N2CCc3nc(N4CCOCC4)nc(Nc4ccc(C(F)(F)F)cc4)c3CC2)c(Cl)c1` the IC50 [1] was 176 nM.
`O=C(O)c1cnc(N2CCc3nc(N4CCCCC4)nc(Nc4ccc(C(F)(F)F)cc4)c3CC2)c(Cl)c1` showed a solubility thermodynamic [2] of 218 µg/mL (≈ 399 µM) and an IC50 [1] of 462 nM.
`FC(F)(F)c1ccc(Nc2nc(N3CCOCC3)nc3c2CCN(c2ncccc2C(F)(F)F)CC3)cc1` showed an AUC(0-inf) [3] of 236 ng·h/mL, a bioavailability [4] of 14% and a Cmax [5] of 160 nM. It also gave a solubility thermodynamic [2] of 0.5 µg/mL (≈ 0.929 µM), a solubility thermodynamic [6] of 5 µg/mL (≈ 9.29 µM) and a Vd [7] of 4.7 L/kg. It also gave an AUC(0-inf) [8] of 322 ng·h/mL, a clearance [9] of 51.7 mL/min/kg and a half-life [10] of 1.1 h. For the same compound, the Activity [11] was “Active”.
In the case of `CC(C)(C)c1ccc(Nc2ncnc3c2CCCN(c2ncccc2C(F)(F)F)C3)cc1`, the IC50 [1] is reported as 2040 nM.
Work on `COc1nc(Nc2nc(C(C)C)nc3c2CCN(c2ncccc2C(F)(F)F)CC3)ccc1C(F)(F)F` yielded an IC50 [1] of 2460 nM.
With `CC(C)(C)c1ccc(Nc2ncnc3c2CCN(c2ncccc2C(F)(F)F)C3)cc1` the IC50 [1] was 9 nM.
`CC(C)(C)c1ccccc1Nc1ncnc2c1CCN(c1ncccc1C(F)(F)F)C2` showed an IC50 [1] greater than 20000 nM.
With `CC(C)(C)c1cccc(Nc2ncnc3c2CCN(c2ncccc2C(F)(F)F)C3)c1` the IC50 [1] was 520 nM.
`C=C(C)C12C[C@@H](C)[C@@]34O[C@](Cc5ccccc5)(O[C@@H]1[C@@H]3C=C(COC(=O)Cc1ccc(O)c(OC)c1)C[C@]1(O)C(=O)C(C)=C[C@@H]41)O2` (single isomer, unassigned) [RESINIFERATOXIN] showed a Ki [12] of 14 nM and an IC50 [13] of 180 nM.
Work on `CC(C)(C)c1ccc(Nc2ncnc3c2CN(c2ncccc2C(F)(F)F)CC3)cc1` yielded an IC50 [1] greater than 10000 nM.
Work on `Cc1nc2c(c(Nc3ccc(C(C)(C)C)cc3)n1)CCN(c1ncccc1C(F)(F)F)C2` yielded an IC50 [1] of 80 nM.
